Measured values: patent US8299048B2, “Hexahydrocyclopentyl[f]indazole sulfonamides and derivatives thereof as selective glucocorticoid receptor modulators” (Merck Sharp & Dohme Corp., priority 2008, dated 2012)

Target: T1, glucocorticoid receptor (Homo sapiens, UniProt P04150)
T1 construct: endogenous in cells
T1 sequence (P04150 1-777): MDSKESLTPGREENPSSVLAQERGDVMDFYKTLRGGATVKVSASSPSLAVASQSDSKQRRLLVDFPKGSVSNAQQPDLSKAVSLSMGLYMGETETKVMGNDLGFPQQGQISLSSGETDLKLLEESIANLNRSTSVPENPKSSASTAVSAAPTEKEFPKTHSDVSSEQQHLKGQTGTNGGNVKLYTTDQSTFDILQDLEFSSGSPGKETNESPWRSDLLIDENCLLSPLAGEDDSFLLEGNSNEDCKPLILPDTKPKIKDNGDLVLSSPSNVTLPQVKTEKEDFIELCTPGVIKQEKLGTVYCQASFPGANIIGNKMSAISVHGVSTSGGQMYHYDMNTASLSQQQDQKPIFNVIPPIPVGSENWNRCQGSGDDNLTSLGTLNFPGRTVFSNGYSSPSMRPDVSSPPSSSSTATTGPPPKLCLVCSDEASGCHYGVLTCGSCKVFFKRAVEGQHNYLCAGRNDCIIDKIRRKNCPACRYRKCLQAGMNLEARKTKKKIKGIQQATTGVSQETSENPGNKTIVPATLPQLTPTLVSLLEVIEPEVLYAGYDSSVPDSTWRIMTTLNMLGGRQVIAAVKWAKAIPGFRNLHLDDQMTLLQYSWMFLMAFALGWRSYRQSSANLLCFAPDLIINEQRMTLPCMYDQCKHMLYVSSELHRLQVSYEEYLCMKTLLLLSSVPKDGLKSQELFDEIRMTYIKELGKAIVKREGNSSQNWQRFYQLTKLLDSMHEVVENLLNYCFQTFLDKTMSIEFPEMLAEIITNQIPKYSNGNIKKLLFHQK
Assay: Ligand binding assay (GR BIND)
Procedure: • Materials: • Binding Buffer: TEGM (10 mM Tris-HCl, 1 mM EDTA, 10% glycerol, 1 mM beta-mecaptoethanol, 10 mM Sodium Molybdate, pH 7.2) • 50% HAP Slurry: Calbiochem Hydroxylapatite, Fast Flow, in 10 mM Tris, pH 8.0 and 1 mM EDTA. • Wash Buffer: 40 mM Tris, pH7.5, 100 mM KCl, 1 mM EDTA and 1 mM EGTA.
Phenol red-free Trypsin-EDTA is diluted in the same PBS1:10. The cell layers are rinsed with 1× Trypsin, extra Trypsin is poured out, and the cell layers are incubated at 37° C. for ˜2 min. The flask is tapped and checked for signs of cell detachment. Once the cells begin to slide off the flask, the complete media is added. The cells are counted at this point, then diluted to the appropriate concentration and split into flasks or dishes for further culturing (Usually 1:3 to 1:6 dilution).
When the cells are 70 to 85% confluent, they are detached as described above, and collected by centrifuging at 1000 g for 10 minutes at 4° C. The cell pellet is washed twice with TEGM (10 mM Tris-HCl, 1 mM EDTA, 10% glycerol, 1 mM beta-mercaptoethanol, 10 mM Sodium Molybdate, pH 7.2). After the final wash, the cells are resuspended in TEGM at a concentration of 10^7 cells/mL. The cell suspension is snap frozen in liquid nitrogen or ethanol/dry ice bath and transferred to −80° C. freezer on dry ice. Before setting up the binding assay, the frozen samples are left on ice-water to just thaw (˜1 hr). Then the samples are centrifuged at 12,500 g to 20,000 g for 30 min at 4° C. The supernatant is used to set-up assay right away. If using 50 μL of supernatant, the test compound can be prepared in 50 μL of the TEGM buffer.
1×TEGM buffer is prepared, and the isotope-containing assay mixture is prepared in the following order: EtOH (2% final concentration in reaction), 3H-DEX (Amersham Biosciences) and 1×TEGM. [e.g. For 100 samples, 200 μL (100×2) of EtOH+4.25 μL of 1:10 ^3H—Dex stock+2300 μL (100×23) 1×TEGM]. The compound is serially diluted, e.g., if starting final conc. is 1 μM, and the compound is in 25 μL of solution, for duplicate samples, 75 μL of 4×1 μM solution is made and 3 μL of 100 μM is added to 72 μL of buffer, and 1:5 serial dilution.
25 μL of ^3H-DEX (6 nM) trace and 25 μL compound solution are first mixed together, followed by addition of 50 μL receptor solution. The reaction is gently mixed, spun briefly at about 200 rpm and incubated at 4° C. overnight. 100 μL of 50% HAP slurry is prepared and added to the incubated reaction which is then vortexed and incubated on ice for 5 to 10 minutes. The reaction mixture is vortexed twice more to resuspend HAP while incubating reaction. The samples in 96-well format are then washed in wash buffer using The FilterMate™ Universal Harvester plate washer (Packard). The washing process transfers HAP pellet containing ligand-bound expressed receptor to Unifilter-96 GF/B filter plate (Packard). The HAP pellet on the filter plate is incubated with 50 μL of MICROSCINT (Packard) scintillint for 30 minutes before being counted on the TopCount microscintillation counter (Packard). […] are calculated using DEX as a reference.

| Structure (SMILES) | Ki [nM] |
| --- | --- |
| C[C@]12Cc3cnn(-c4ccc(F)cc4)c3C=C1CC[C@@H]2CN(CC1CC1)S(=O)(=O)c1cc(C(F)(F)F)ccc1Cl [Example 5, 2-chloro-N-(cyclopropylmethyl)-N-{[(4αR,5S)-1-(4-fluorophenyl)-4α-methyl-1,4,4α,5,6,7-hexahydrocyclopenta[f]indazol-5-yl]methyl}-5-(trifluoromethyl)benzenesulfonamide] | 1 |
| CC(=O)Nc1ccc(S(=O)(=O)N(CC2CC2)C[C@H]2CCC3=Cc4c(cnn4-c4ccc(F)cc4)C[C@@]32C)cc1 [Example 6, N-{4-[((cyclopropylmethyl){[(4αR,5S)-1-(4-fluorophenyl)-4α-methyl-1,4,4α,5,6,7-hexahydrocyclopenta[f]indazol-5-yl]methyl}amino)sulfonyl]phenyl}acetamide] | 0.9 |
| Cc1nn(C)c(Cl)c1S(=O)(=O)N(CC1CC1)C[C@H]1CCC2=Cc3c(cnn3-c3ccc(F)cc3)C[C@@]21C [Example 7] | 0.4 |
| CN1CCOc2cc(S(=O)(=O)N(CC3CC3)C[C@H]3CCC4=Cc5c(cnn5-c5ccc(F)cc5)C[C@@]43C)ccc21 [Example 8, N-(cyclopropylmethyl)-N-{[(4αR,5S)-1-(4-fluorophenyl)-4α-methyl-1,4,4α,5,6,7-hexahydrocyclopenta[f]indazol-5-yl]methyl}-4-methyl-3,4-dihydro-2H-1,4-benzoxazine-7-sulfonamide] | 1.9 |
| CCCCCc1ccc(S(=O)(=O)N(CC2CC2)C[C@H]2CCC3=Cc4c(cnn4-c4ccc(F)cc4)C[C@@]32C)cc1 [Example 9, N-(cyclopropylmethyl)-N-{[(4αR,5S)-1-(4-fluorophenyl)-4α-methyl-1,4,4α,5,6,7-hexahydrocyclopenta[f]indazol-5-yl]methyl}-4-pentylbenzenesulfonamide] | 2.2 |
| C[C@]12Cc3cnn(-c4ccc(F)cc4)c3C=C1CC[C@@H]2CN(CC1CC1)S(=O)(=O)c1ccc(-c2ccccc2)cc1 [Example 10, N-(cyclopropylmethyl)-N-{[(4αR,5S)-1-(4-fluorophenyl)-4α-methyl-1,4,4α,5,6,7-hexahydrocyclopenta[f]indazol-5-yl]methyl}biphenyl-4-sulfonamide] | 0.7 |
| Cc1noc(C)c1S(=O)(=O)N(CC1CC1)C[C@H]1CCC2=Cc3c(cnn3-c3ccc(F)cc3)C[C@@]21C [Example 11, N-(cyclopropylmethyl)-N-{[(4αR,5S)-1-(4-fluorophenyl)-4α-methyl-1,4,4α,5,6,7-hexahydrocyclopenta[f]indazol-5-yl]methyl}-3,5-dimethylisoxazole-4-sulfonamide] | 0.7 |
| CCCS(=O)(=O)N(CCOC)C[C@H]1CCC2=Cc3c(cnn3-c3ccc(F)cc3)C[C@@]21C [Example 95, N-{[(4αR,5S)-1-(4-fluorophenyl)-4α-methyl-1,4,4α,5,6,7-hexahydrocyclopenta[f]indazol-5-yl]methyl}-N-(2-methoxyethyl)propane-1-sulfonamide] | 5.2 |
| COCCN(C[C@H]1CCC2=Cc3c(cnn3-c3ccc(F)cc3)C[C@@]21C)S(C)(=O)=O [Example 96, N-{[(4αR,5S)-1-(4-fluorophenyl)-4α-methyl-1,4,4α,5,6,7-hexahydrocyclopenta[f]indazol-5-yl]methyl}-N-(2-methoxyethyl)methanesulfonamide] | 1.1 |
| COCCN(C[C@H]1CCC2=Cc3c(cnn3-c3ccc(F)cc3)C[C@@]21C)S(=O)(=O)CC(F)(F)F [Example 97, 2,2,2-trifluoro-N-{[(4αR,5S)-1-(4-fluorophenyl)-4α-methyl-1,4,4α,5,6,7-hexahydrocyclopenta[f]indazol-5-yl]methyl}-N-(2-methoxyethyl)ethanesulfonamide] | 0.3 |
| Cn1cc(S(=O)(=O)N(CCc2ccccc2F)C[C@H]2CCC3=Cc4c(cnn4-c4ccc(F)cc4)C[C@@]32C)c(C(F)(F)F)n1 [Example 98, N-[2-(2-fluorophenyl)ethyl]-N-{[(4αR,5S)-1-(4-fluorophenyl)-4α-methyl-1,4,4α,5,6,7-hexahydrocyclopenta[f]indazol-5-yl]methyl}-1-methyl-3-(trifluoromethyl)-1H-pyrazole-4-sulfonamide] | 1.5 |
| C[C@]12Cc3cnn(-c4ccc(F)cc4)c3C=C1CC[C@@H]2CN(CCc1ccccc1F)S(=O)(=O)c1ccccc1C(F)(F)F [Example 99, N-[2-(2-fluorophenyl)ethyl]-N-{[(4αR,5S)-1-(4-fluorophenyl)-4α-methyl-1,4,4α,5,6,7-hexahydrocyclopenta[f]indazol-5-yl]methyl}-2-(trifluoromethyl)benzenesulfonamide] | 1.4 |
| C[C@]12Cc3cnn(-c4ccc(F)cc4)c3C=C1CC[C@@H]2CN(CCc1ccccc1F)S(=O)(=O)c1ccccc1Cl [Example 100, 2-chloro-N-[2-(2-fluorophenyl)ethyl]-N-{[(4αR,5S)-1-(4-fluorophenyl)-4α-methyl-1,4,4α,5,6,7-hexahydrocyclopenta[f]indazol-5-yl]methyl}benzenesulfonamide] | 2.1 |
| CCCCS(=O)(=O)N(CCc1ccccc1F)C[C@H]1CCC2=Cc3c(cnn3-c3ccc(F)cc3)C[C@@]21C [Example 102, N-[2-(2-fluorophenyl)ethyl]-N-{[(4αR,5S)-1-(4-fluorophenyl)-4α-methyl-1,4,4α,5,6,7-hexahydrocyclopenta[f]indazol-5-yl]methyl}butane-1-sulfonamide] | 2.6 |
| CC(C)CS(=O)(=O)N(CCc1ccccc1F)C[C@H]1CCC2=Cc3c(cnn3-c3ccc(F)cc3)C[C@@]21C [Example 103, N-[2-(2-fluorophenyl)ethyl]-N-{[(4αR,5S)-1-(4-fluorophenyl)-4α-methyl-1,4,4α,5,6,7-hexahydrocyclopenta[f]indazol-5-yl]methyl}-2-methylpropane-1-sulfonamide] | 1.7 |
| CCCCCCCCS(=O)(=O)N(CCc1ccccc1F)C[C@H]1CCC2=Cc3c(cnn3-c3ccc(F)cc3)C[C@@]21C [Example 104, N-[2-(2-fluorophenyl)ethyl]-N-{[(4αR,5S)-1-(4-fluorophenyl)-4α-methyl-1,4,4α,5,6,7-hexahydrocyclopenta[f]indazol-5-yl]methyl}octane-1-sulfonamide] | 9.8 |
| C[C@]12Cc3cnn(-c4ccc(F)cc4)c3C=C1CC[C@@H]2CN(CCc1ccccc1F)S(=O)(=O)Cc1ccc(Cl)cc1Cl [Example 105, 1-(2,4-dichlorophenyl)-N-[2-(2-fluorophenyl)ethyl]-N-{[(4αR,5S)-1-(4-fluorophenyl)-4α-methyl-1,4,4α,5,6,7-hexahydrocyclopenta[f]indazol-5-yl]methyl}methanesulfonamide] | 1.7 |
| C[C@]12Cc3cnn(-c4ccc(F)cc4)c3C=C1CC[C@@H]2CN(CCc1ccccc1F)S(=O)(=O)Cc1cccc(Cl)c1 [Example 106, 1-(3-chlorophenyl)-N-[2-(2-fluorophenyl)ethyl]-N-{[(4αR,5S)-1-(4-fluorophenyl)-4α-methyl-1,4,4α,5,6,7-hexahydrocyclopenta[f]indazol-5-yl]methyl}methanesulfonamide] | 1.7 |
